Measurements from article PMC11031590, “Narazaciclib, a novel multi-kinase inhibitor with potent activity against CSF1R, FLT3 and CDK6, shows strong anti-AML activity in defined preclinical models” (Scientific Reports, 2024).

Key:
parental Ba/F3 line = assay: Parental Ba/F3 proliferation assay (CTG); type: cell-based; conditions: Mus musculus, BaF3
Description: (§1) The recombinant Ba/F3 cell lines overexpressing human CSF1R, or human RBM6-CSF1R, or human ETV6-CSF1R were generated using a retrovirus vector (Kyinno Co., Ltd. Beijing). The recombinant Ba/F3 lines overexpressing human Kras G12C orEGFR-L718Q mutants, and different mutant variants of FLT3 were also similarly created as well. A standard proliferation assay via CTG readout was performed according to the vendor’s instructions (KYinno Biotechnology Co., Ltd. Beijing).

Ba/F3-EGFR-L718Q = Ba/F3-EGFR-L718Q proliferation assay (CTG); type: cell-based; conditions: Mus musculus
Description: as §1

MONOMAC-6 = assay: AML cell line in vitro proliferation assay; type: cell-based
Description: (§2) Narazaciclib was serially diluted with culture medium to 9 final assay concentrations from 0.01 to 100 μM. The assay was performed with both a negative control (vehicle) and a positive control (Cisplatin) in triplicate. The AML cell lines at log-growth phase were cultured in 96-well plates (black transparent flat bottom 96-well plate, Corning, Cat# 3603, FBS, ExCell Bio., Cat# FND500) in the presence of narazaciclib or Cisplatin at various concentrations for 72 h or 120 h (only for AML-193 cell line), followed by CTG readout according to the manufacturer’s instruction (CellTiter-Glo Luminescent Cell Viability Assay, Promega, Cat# G7573). Viability%=Lumdrug-Lummedium control/Lumcell control-Lummedium control×100%. Lumcell control-Lummedium controlas100%,LumMediumcontrolas0%. Proliferationfold increase=D5-LumNone treated-LumMedium control/D2LumNone treated-LumMedium control
(§3) Dose–response curves were fitted by a 4-parameter log-logistic model: Inhibition%=Bottom+Top-Bottom/1+10^logEC50-x∗HillSlope where Top and Bottom are the two asymptotes of the sigmoidal curve, EC50 is the relative IC50, concentration x is in log-10 scale and HillSlope is the slope at the EC50 point on the fitted curve. The fitted area under the curve (AUC) was calculated by: Inhibition%=Bottom+Top-Bottom/1+10^logEC50-x∗HillSlope where a represents the log10-transformed minimal concentration and b represents the log10-transformed maximal concentration. An extremely strong positive correlation between the absolute IC50 and AUC is shown in Supplemental Fig. S5.

NB4 = assay: AML cell line in vitro proliferation assay; type: cell-based
Description: as §2, §3

NOMO-1 = assay: AML cell line in vitro proliferation assay; type: cell-based
Description: as §2, §3

AML-193 = assay: AML cell line in vitro proliferation assay; type: cell-based
Description: as §2, §3

HL-60 = assay: AML cell line in vitro proliferation assay; type: cell-based
Description: as §2, §3

MOLM-13 = assay: AML cell line in vitro proliferation assay; type: cell-based
Description: as §2, §3

HNT34 = assay: AML cell line in vitro proliferation assay; type: cell-based
Description: as §2, §3

HEL-9217 = assay: AML cell line in vitro proliferation assay; type: cell-based
Description: as §2, §3

KG-1 = assay: AML cell line in vitro proliferation assay; type: cell-based
Description: as §2, §3

SKM-1 = assay: AML cell line in vitro proliferation assay; type: cell-based
Description: as §2, §3

SKNO-1 = assay: AML cell line in vitro proliferation assay; type: cell-based
Description: as §2, §3

EOL1 = assay: AML cell line in vitro proliferation assay; type: cell-based
Description: as §2, §3

HEL = assay: AML cell line in vitro proliferation assay; type: cell-based
Description: as §2, §3

CMK-115 = assay: AML cell line in vitro proliferation assay; type: cell-based
Description: as §2, §3

PLB-985 = assay: AML cell line in vitro proliferation assay; type: cell-based
Description: as §2, §3

KASUMI-1 = assay: AML cell line in vitro proliferation assay; type: cell-based
Description: as §2, §3

THP-1 = assay: AML cell line in vitro proliferation assay; type: cell-based
Description: as §2, §3

CMK = assay: AML cell line in vitro proliferation assay; type: cell-based
Description: as §2, §3

MOLM-16 = assay: AML cell line in vitro proliferation assay; type: cell-based
Description: as §2, §3

KG-1A = assay: AML cell line in vitro proliferation assay; type: cell-based
Description: as §2, §3

Ba/F3-CSF1R cell line = assay: Ba/F3-CSF1R proliferation assay (CTG); type: cell-based, mouse
Description: as §1

[1] = area under the dose–response curve

CN1CCN(c2ccc(Nc3ncc4cc(C#N)c(=O)n(C5CCCC5)c4n3)cc2)CC1 [Narazaciclib, narazaciclib]
IC50 (parental Ba/F3 line): 1.35 µM | IC50 (Ba/F3-EGFR-L718Q): 0.633 µM | IC50 (MONOMAC-6; Homo sapiens, MONO-MAC-6, MONOMAC-6, 72 h, CTG): 1.52 µM | Classification by AUC (MONOMAC-6; MONOMAC-6): Sensitive (AUC ≤ 2.4, sensitive) | AUC (MONOMAC-6; MONOMAC-6, area under the dose–response curve): 2.356 | IC50 (NB4; Homo sapiens, NB-4, NB4, 72 h, CTG): 3.28 µM | Classification by AUC (NB4; NB4): Insensitive (AUC ≥ 2.8, insensitive) | AUC (NB4; NB4, area under the dose–response curve): 2.865 | IC50 (NOMO-1; Homo sapiens, NOMO-1, 72 h, CTG): > 100 µM | Classification by AUC (NOMO-1; NOMO-1): Insensitive (AUC ≥ 2.8, insensitive) | AUC (NOMO-1; NOMO-1, area under the dose–response curve): 3.207 | Classification by AUC (AML-193; AML-193): Intermediate (2.4 < AUC < 2.8, intermediate) | IC50 (AML-193; AML-193, 120 h, CTG): 6.29 µM | AUC (AML-193; AML-193, area under the dose–response curve): 2.514 | Classification by AUC (HL-60; HL-60): Insensitive (AUC ≥ 2.8, insensitive) | AUC (HL-60; HL-60, area under the dose–response curve): 2.836 | IC50 (HL-60; Homo sapiens, HL-60, 72 h, CTG): 6.14 µM | IC50 (MOLM-13; Homo sapiens, MOLM-13, 72 h, CTG): 0.103 µM | Classification by AUC (MOLM-13; MOLM-13): Sensitive (AUC ≤ 2.4, sensitive) | AUC (MOLM-13; MOLM-13, area under the dose–response curve): 1.068 | Classification by AUC (HNT34; HNT34): Sensitive (AUC ≤ 2.4, sensitive) | AUC (HNT34; HNT34, area under the dose–response curve): 2.068 | IC50 (HNT34; HNT-34, HNT34, 72 h, CTG): 1.48 µM | Classification by AUC (HEL-9217; HEL-9217): Insensitive (AUC ≥ 2.8, insensitive) | AUC (HEL-9217; HEL-9217, area under the dose–response curve): 3.209 | IC50 (HEL-9217; Homo sapiens, HEL 92.1.7, HEL-9217, 72 h, CTG): 15.7 µM | IC50 (KG-1; Homo sapiens, KG-1, 72 h, CTG): 1.76 µM | Classification by AUC (KG-1; KG-1): Intermediate (2.4 < AUC < 2.8, intermediate) | AUC (KG-1; KG-1, area under the dose–response curve): 2.63 | IC50 (SKM-1; Homo sapiens, SKM-1, 72 h, CTG): 1.94 µM | Classification by AUC (SKM-1; SKM-1): Sensitive (AUC ≤ 2.4, sensitive) | AUC (SKM-1; SKM-1, area under the dose–response curve): 2.323 | Classification by AUC (SKNO-1; SKNO-1): Sensitive (AUC ≤ 2.4, sensitive) | IC50 (SKNO-1; SKNO-1, 72 h, CTG): 0.234 µM | AUC (SKNO-1; SKNO-1, area under the dose–response curve): 1.97 | Classification by AUC (EOL1; EOL1): Sensitive (AUC ≤ 2.4, sensitive) | AUC (EOL1; EOL1, area under the dose–response curve): 0.5917 | IC50 (EOL1; Homo sapiens, EOL1, 72 h, CTG): 0.035 µM | Classification by AUC (HEL): Insensitive (AUC ≥ 2.8, insensitive) | IC50 (HEL; Homo sapiens, 72 h, CTG): 15.3 µM | AUC (HEL; [1]): 3.335 | IC50 (CMK-115; CMK-11-5, CMK-115, 72 h, CTG): 5.07 µM | Classification by AUC (CMK-115; CMK-115): Insensitive (AUC ≥ 2.8, insensitive) | AUC (CMK-115; CMK-115, area under the dose–response curve): 2.801 | Classification by AUC (PLB-985; PLB-985): Insensitive (AUC ≥ 2.8, insensitive) | IC50 (PLB-985; PLB-985, 72 h, CTG): 14.1 µM | AUC (PLB-985; PLB-985, area under the dose–response curve): 2.988 | IC50 (KASUMI-1; Homo sapiens, KASUMI-1, 72 h, CTG): 0.169 µM | Classification by AUC (KASUMI-1; KASUMI-1): Sensitive (AUC ≤ 2.4, sensitive) | AUC (KASUMI-1; KASUMI-1, area under the dose–response curve): 1.307 | IC50 (THP-1; Homo sapiens, THP-1, 72 h, CTG): > 100 µM | Classification by AUC (THP-1; THP-1): Insensitive (AUC ≥ 2.8, insensitive) | AUC (THP-1; THP-1, area under the dose–response curve): 3.445 | Classification by AUC (CMK): Sensitive (AUC ≤ 2.4, sensitive) | IC50 (CMK; Homo sapiens, 72 h, CTG): 1.65 µM | AUC (CMK; [1]): 2.347 | IC50 (MOLM-16; MOLM16, MOLM-16, 72 h, CTG): 4.77 µM | Classification by AUC (MOLM-16; MOLM-16): Insensitive (AUC ≥ 2.8, insensitive) | AUC (MOLM-16; MOLM-16, area under the dose–response curve): 2.992 | Classification by AUC (KG-1A): Sensitive (AUC ≤ 2.4, sensitive) | IC50 (KG-1A; Homo sapiens, 72 h, CTG): 1.06 µM | AUC (KG-1A; [1]): 2.289 | times more potent than GW2580 (Ba/F3-CSF1R cell line; Ba/F3-CSF1R in the presence of CSF1): 16 times | IC50 (Ba/F3-CSF1R cell line; Mus musculus, + 100 ng/ml CSF-1): ~0.00354 µM
